One test has as its system preadipocytes OP9. Kind of test: Lipid droplet formation in preadipocytes OP9, oil red O staining (FIG. 6). The following applies: 20 μM, differentiation with 1 μM rosiglitazone, OD510. The test is classed as cell-based. Here is the method:
The effect of the compound shown as the formula I-1 on preadipocytes OP9 is detected: • (1) The cancer cells in the logarithmic growth phase are taken and inoculated into a 6 cm culture dish with the inoculation density of 2*10^6 cells, and incubated under 5% CO2 at 37° C. • (2) After cell adherence, 6 ml of 10% FBS culture medium containing 20 μM of the compound shown as the formula I is added into each dish with the culture medium as a negative control; cerulenin as a positive control; and 1 μM rosiglitazone (RSG) is used for differentiation. • (3) To observe the formation of lipid droplets, cells were incubated with 4% paraformaldehyde solution for 30 min at room temperature, washed with phosphate-buffered saline (PBS), and then stained with 0.5% oil red O in 60% isopropanol. • (4) After washing with distilled water, the stained cells were observed through a microscope, and then oil red O was extracted with isopropanol for quantification. This quantification was performed by measuring the absorbance of isopropanol solutions of oil red O at 510 nm.

In test [1] the test system is prostate cancer cells PC3. Kind of test: Cell division of PC3 cells, CFSE flow cytometry (FIG. 4). Type of test: cell-based. The note with it: 10 μM, 24 hours, versus cells without compound.
From the text: […]
Background: Flow cytometry measures light scatter and fluorescence of single cells or particles in a stream.

In test [2] the test system is colon cancer cells HCT116. Kind of test: Fatty acid content and composition by GC/MS, HCT116 (FIG. 5). The note with it: HCT116, 20 μM, 24 hours. The test is classed as cell-based.
From the text: […]

Test [3] concerns the target T1, fatty acid synthase (FASN) in colon cancer cells HCT116 (Homo sapiens, UniProt P49327).
T1 construct: endogenous in cells; host or cells: HCT116 colon cancer cells
Description: FASN enzyme activity detection in treated HCT116 cells (NADPH absorbance at 340 nm). Type of test: cell-based. The following applies: HCT-116, 4 hours of incubation, read-out: FASN enzyme activity inhibition rate (%).

Test [4] deals with tumor cells 22RV1, PC-3, HT-29, Hela, Hep G2, CaCo-2 and HCT116. Description: MTT proliferation of various tumor cells at single concentration (FIG. 2). Type of test: cell-based. The following applies: 10 μM, 72 hours, 7 different tumor cells. An excerpt:
Cell survival rate=(OD570−OD630)/(OD570 negative control−OD630 negative control); wherein, OD570: OD570 value of each treatment group; OD630: OD630 value of each treatment group; OD570 control: OD570 value of the negative control group; OD630 control: OD630 value of the negative control group.

In another test the test system is nematodes. Kind of test: Accumulation of lipid droplets in nematodes, oil red staining (FIG. 7). Type of test: in vivo. The note with it: 10 μM, 9 days. Here is the method: Nematodes are taken and resuspended in an M9 buffer, 3 ml of nematode suspension is added into each test tube, the compound shown as the formula I is added into an experimental group to make the final concentration reach 10 μM, a group with no addition of the compound shown as the formula I is used as a control, the suspension is subjected to shaking culture on a shaker at 200 rpm/min, oil red staining is carried out after 9 days, the suspension is placed on a glass slide for observing the lipid droplet condition under a microscope.

Test [5] deals with prostate cancer cells PC-3. Kind of test: Fatty acid content and composition by GC/MS, PC-3 (FIG. 5). Type of test: cell-based. The note with it: PC-3, 20 μM, 24 hours.
From the text: […]

T1 sequence (P49327 whole entry): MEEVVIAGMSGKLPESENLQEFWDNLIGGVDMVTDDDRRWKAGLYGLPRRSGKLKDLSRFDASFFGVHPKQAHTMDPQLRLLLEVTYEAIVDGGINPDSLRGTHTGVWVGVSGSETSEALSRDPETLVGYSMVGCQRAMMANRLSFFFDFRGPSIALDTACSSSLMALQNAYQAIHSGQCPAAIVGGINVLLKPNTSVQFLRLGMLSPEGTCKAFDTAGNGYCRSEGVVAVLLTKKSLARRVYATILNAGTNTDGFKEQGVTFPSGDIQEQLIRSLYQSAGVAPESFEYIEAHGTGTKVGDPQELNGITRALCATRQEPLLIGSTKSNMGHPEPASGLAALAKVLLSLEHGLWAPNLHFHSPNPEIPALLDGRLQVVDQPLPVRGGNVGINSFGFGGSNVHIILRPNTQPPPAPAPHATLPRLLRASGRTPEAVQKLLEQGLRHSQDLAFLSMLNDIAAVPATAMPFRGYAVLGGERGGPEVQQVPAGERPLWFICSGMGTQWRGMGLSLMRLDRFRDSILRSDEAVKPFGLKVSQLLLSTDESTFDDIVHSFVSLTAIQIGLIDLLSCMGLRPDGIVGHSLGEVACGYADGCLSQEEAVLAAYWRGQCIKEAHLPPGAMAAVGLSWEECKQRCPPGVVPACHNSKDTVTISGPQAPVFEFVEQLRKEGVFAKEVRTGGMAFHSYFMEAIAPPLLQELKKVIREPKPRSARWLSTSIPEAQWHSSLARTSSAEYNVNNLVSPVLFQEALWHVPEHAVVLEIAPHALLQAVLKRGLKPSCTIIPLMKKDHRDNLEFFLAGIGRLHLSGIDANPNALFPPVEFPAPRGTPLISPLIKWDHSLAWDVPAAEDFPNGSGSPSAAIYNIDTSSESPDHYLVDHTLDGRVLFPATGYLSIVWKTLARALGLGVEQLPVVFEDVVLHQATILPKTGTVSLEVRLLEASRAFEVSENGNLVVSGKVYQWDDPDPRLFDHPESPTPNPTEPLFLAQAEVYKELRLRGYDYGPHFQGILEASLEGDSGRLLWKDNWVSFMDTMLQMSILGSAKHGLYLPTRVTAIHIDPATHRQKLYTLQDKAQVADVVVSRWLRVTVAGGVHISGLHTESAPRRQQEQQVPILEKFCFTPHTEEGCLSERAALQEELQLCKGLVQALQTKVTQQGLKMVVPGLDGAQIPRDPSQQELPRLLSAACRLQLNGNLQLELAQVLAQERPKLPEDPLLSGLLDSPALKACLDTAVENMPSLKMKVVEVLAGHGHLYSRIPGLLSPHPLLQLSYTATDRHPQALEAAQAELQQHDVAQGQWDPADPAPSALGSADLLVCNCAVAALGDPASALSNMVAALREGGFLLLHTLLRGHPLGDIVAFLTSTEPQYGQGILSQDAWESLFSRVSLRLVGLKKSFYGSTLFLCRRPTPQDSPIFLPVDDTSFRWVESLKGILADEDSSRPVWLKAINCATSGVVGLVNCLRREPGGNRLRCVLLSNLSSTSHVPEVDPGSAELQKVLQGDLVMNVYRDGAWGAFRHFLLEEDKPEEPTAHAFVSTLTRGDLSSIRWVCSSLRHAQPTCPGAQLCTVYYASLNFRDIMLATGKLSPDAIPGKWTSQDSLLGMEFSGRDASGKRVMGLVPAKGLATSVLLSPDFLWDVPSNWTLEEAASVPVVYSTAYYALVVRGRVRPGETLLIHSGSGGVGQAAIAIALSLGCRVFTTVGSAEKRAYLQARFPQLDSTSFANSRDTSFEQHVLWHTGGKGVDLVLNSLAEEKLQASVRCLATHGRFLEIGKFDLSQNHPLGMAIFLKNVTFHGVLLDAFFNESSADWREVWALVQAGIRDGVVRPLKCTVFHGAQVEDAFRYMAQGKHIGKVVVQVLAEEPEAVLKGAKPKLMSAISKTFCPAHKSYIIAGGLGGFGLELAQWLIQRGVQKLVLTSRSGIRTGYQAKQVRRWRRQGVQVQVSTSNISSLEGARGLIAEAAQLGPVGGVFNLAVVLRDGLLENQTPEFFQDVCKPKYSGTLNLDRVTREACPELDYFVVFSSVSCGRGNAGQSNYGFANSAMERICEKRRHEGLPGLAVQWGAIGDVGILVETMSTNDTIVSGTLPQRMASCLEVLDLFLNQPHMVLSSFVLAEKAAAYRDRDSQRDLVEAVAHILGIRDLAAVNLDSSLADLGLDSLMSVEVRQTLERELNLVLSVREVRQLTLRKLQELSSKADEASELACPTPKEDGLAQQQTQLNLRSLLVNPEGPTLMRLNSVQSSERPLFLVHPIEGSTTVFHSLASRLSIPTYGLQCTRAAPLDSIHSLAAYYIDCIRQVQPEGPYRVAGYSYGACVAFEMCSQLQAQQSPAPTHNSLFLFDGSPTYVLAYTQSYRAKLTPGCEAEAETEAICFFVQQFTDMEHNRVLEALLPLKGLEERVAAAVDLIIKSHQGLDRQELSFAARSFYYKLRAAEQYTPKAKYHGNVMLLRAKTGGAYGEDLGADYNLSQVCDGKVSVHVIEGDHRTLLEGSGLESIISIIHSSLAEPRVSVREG

As to `O=C(CCCC(=O)Nc1ccc(Br)cc1)N/N=C/c1cc(Br)ccc1O` [Compound I-1], the “number of lipid droplets in cells OP9” value in the test on preadipocytes OP9 was “reduced significantly”. In addition, the “split peak number (cell division)” value in test [1] is listed as “significantly reduced”. Further, the “fatty acid content of 16:0” value in test [2] and in test [5] was “lower than that of the control group” in each case. Moreover, the “total fatty acid content” value in test [2] and in test [5] was “significantly lower than that of the control group” in each case. Moreover, in test [3], the inhibition at 20 µM came out at 58.6%. In test [4], the “effect on proliferation of tumor cells” value is “significantly improved inhibitory effect on tumor proliferation”. The “accumulation of lipid droplets in nematodes” value in the test with nematodes was “significantly lower than that of the control group”.

Usually inhibition stands for the relative decrease from the control value, in per cent.

The values above are taken from patent US11911353B2, “Fatty acid synthase inhibitor and application thereof” (Jiangnan University, priority 2019, dated 2024).
